Values quoted from earlier work as cited in patent US20250241904A1, “COMPOSITION AND METHOD FOR PREVENTION AND TREATMENT OF CUTANEOUS RADIATION INJURY” (Rythera Therapeutics, Inc., priority 2022, published 2025).

How the values were obtained:
[1] = test system: radiation proctopathy or proctitis; details: in vivo
mice = details: topical

O=[N+]([O-])OCC(CO[N+](=O)[O-])O[N+](=O)[O-] [nitroglycerin]
treating radiation proctopathy or proctitis [1]: ineffective

O=C1O[C@H]([C@@H](O)CO)C(O)=C1O [Vitamin C]
results of irradiated breast tissue (radiation dermatitis; in vivo): without improvement

Sucralfate
treating radiation proctopathy or proctitis [1]: ineffective

NCCCNCCSP(=O)(O)O [amifostine]
dermato-cytoprotective effects (radiation dermatitis; retrospective analysis): significant dermato-cytoprotective effects

Nc1ccc(O)c(C(=O)O)c1 [5-ASA, 5-aminosalicylic acid]
treating radiation proctopathy or proctitis [1]: unsuccessful

CN[C@H]1CC[C@@H](c2ccc(Cl)c(Cl)c2)c2ccccc21 [sertraline]
itch-evoked scratching (mice): significant itch-evoked scratching
